Test results published in PubChem BioAssay AID1963852 (Molecular Pharmacology Branch, DTP, NCI, 2024).

System: 282377-053-R-J1-PDC complex spheroid viability
Assay: Anticancer human tumor 282377-053-R-J1-PDC patient-derived colon adenocarcinoma cell line growth inhibition [POLQ]
Conditions: for IC50: curve of first compound; for viability, T/C: stronger effect = lower value
Summary of the method: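 Complex spheroid viability model combining PDC tumour cells with endothelial (HUVEC) and MSC stromal cells. Novobiocin, ART-558 or RP6685 were tested singly and in combination with standard and investigational anticancer drugs. Each was titrated in half-log steps from near clinical Cmax, or from 10 microM where Cmax was unknown.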

[1] = second compound 0.0316 µM, first compound 0.0316 µM
[2] = second compound 0.0316 µM, first compound 0.1 µM
[3] = second compound 0.1 µM, first compound 0.0316 µM
[4] = second compound 0.1 µM, first compound 0.1 µM
[5] = second compound 0.316 µM, first compound 0.0316 µM
[6] = second compound 0.316 µM, first compound 0.1 µM
[7] = second compound 1 µM, first compound 0.0316 µM
[8] = second compound 1 µM, first compound 0.1 µM
[9] = second compound 3.16 µM, first compound 0.0316 µM
[10] = second compound 3.16 µM, first compound 0.1 µM
[11] = second compound 10 µM, first compound 0.0316 µM
[12] = second compound 10 µM, first compound 0.1 µM
[13] = second compound 0.0316 µM, first compound 0.316 µM
[14] = second compound 0.0316 µM, first compound 1 µM
[15] = second compound 0.0316 µM, first compound 3.16 µM
[16] = second compound 0.0316 µM, first compound 10 µM
[17] = second compound 0.1 µM, first compound 0.316 µM
[18] = second compound 0.1 µM, first compound 1 µM
[19] = second compound 0.1 µM, first compound 3.16 µM
[20] = second compound 0.1 µM, first compound 10 µM
[21] = second compound 0.316 µM, first compound 0.316 µM
[22] = second compound 0.316 µM, first compound 1 µM
[23] = second compound 0.316 µM, first compound 3.16 µM
[24] = second compound 0.316 µM, first compound 10 µM
[25] = second compound 1 µM, first compound 0.316 µM
[26] = second compound 1 µM, first compound 1 µM
[27] = second compound 1 µM, first compound 3.16 µM
[28] = second compound 1 µM, first compound 10 µM
[29] = second compound 3.16 µM, first compound 0.316 µM
[30] = second compound 3.16 µM, first compound 1 µM
[31] = second compound 3.16 µM, first compound 3.16 µM
[32] = second compound 3.16 µM, first compound 10 µM
[33] = second compound 10 µM, first compound 0.316 µM
[34] = second compound 10 µM, first compound 1 µM
[35] = second compound 10 µM, first compound 3.16 µM
[36] = second compound 10 µM, first compound 10 µM
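Note: spheroids exposed to compounds for seven days.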
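Throughout, for viability, T/C: 100% = DMSO vehicle control viability.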

SMILES: CC[C@@]1(O)C(=O)OCc2c1cc1n(c2=O)Cc2cc3c(CN(C)C)c(O)ccc3nc2-1 + Nc1ccc(C#CCN(C(=O)Cc2ncc(C(F)(F)F)cc2C(F)(F)F)c2ccc(F)cc2)nn1
- IC50 (second compound 0.0316 µM): > 100 nM
- IC50 (second compound 0.1 µM): > 100 nM
- IC50 (second compound 0.316 µM): > 100 nM
- IC50 (second compound 1 µM): > 100 nM
- IC50 (second compound 3.16 µM): > 100 nM
- IC50 (second compound 10 µM): > 100 nM
- viability, T/C (second compound 0.0316 µM, first compound 0.000316 µM): 117%
- viability, T/C (second compound 0.0316 µM, first compound 0.001 µM): 90.7%
- viability, T/C (second compound 0.0316 µM, first compound 0.00316 µM): 124%
- viability, T/C (second compound 0.0316 µM, first compound 0.01 µM): 103%
- viability, T/C [1]: 96.5%
- viability, T/C [2]: 99.8%
- viability, T/C (second compound 0.1 µM, first compound 0.000316 µM): 91.1%
- viability, T/C (second compound 0.1 µM, first compound 0.001 µM): 99.2%
- viability, T/C (second compound 0.1 µM, first compound 0.00316 µM): 91%
- viability, T/C (second compound 0.1 µM, first compound 0.01 µM): 94.7%
- viability, T/C [3]: 103%
- viability, T/C [4]: 102%
- viability, T/C (second compound 0.316 µM, first compound 0.000316 µM): 97.1%
- viability, T/C (second compound 0.316 µM, first compound 0.001 µM): 94.8%
- viability, T/C (second compound 0.316 µM, first compound 0.00316 µM): 91.7%
- viability, T/C (second compound 0.316 µM, first compound 0.01 µM): 79.3%
- viability, T/C [5]: 101%
- viability, T/C [6]: 101%
- viability, T/C (second compound 1 µM, first compound 0.000316 µM): 95.2%
- viability, T/C (second compound 1 µM, first compound 0.001 µM): 88.9%
- viability, T/C (second compound 1 µM, first compound 0.00316 µM): 83%
- viability, T/C (second compound 1 µM, first compound 0.01 µM): 85%
- viability, T/C [7]: 102%
- viability, T/C [8]: 91.1%
- viability, T/C (second compound 3.16 µM, first compound 0.000316 µM): 95.8%
- viability, T/C (second compound 3.16 µM, first compound 0.001 µM): 95.7%
- viability, T/C (second compound 3.16 µM, first compound 0.00316 µM): 94.2%
- viability, T/C (second compound 3.16 µM, first compound 0.01 µM): 95.4%
- viability, T/C [9]: 103%
- viability, T/C [10]: 91.8%
- viability, T/C (second compound 10 µM, first compound 0.000316 µM): 111%
- viability, T/C (second compound 10 µM, first compound 0.001 µM): 93.7%
- viability, T/C (second compound 10 µM, first compound 0.00316 µM): 124%
- viability, T/C (second compound 10 µM, first compound 0.01 µM): 112%
- viability, T/C [11]: 112%
- viability, T/C [12]: 127%

SMILES: CC1COCCN1c1cc(-c2ccnn2C)c2ccnc(-c3ccn[nH]3)c2n1 (stereo unspecified) + Cc1cccc(N(C)C(=O)C2C(O)CCN2c2nc(C)cc(C(F)(F)F)c2C#N)c1
- IC50 (second compound 0.0316 µM): 381 nM
- IC50 (second compound 0.1 µM): 551 nM
- IC50 (second compound 0.316 µM): 289 nM
- IC50 (second compound 1 µM): 362 nM
- IC50 (second compound 3.16 µM): 479 nM
- IC50 (second compound 10 µM): 634 nM
- viability, T/C [1]: 91.3%
- viability, T/C [2]: 86.4%
- viability, T/C [13]: 52.6%
- viability, T/C [14]: 32.6%
- viability, T/C [15]: 26.3%
- viability, T/C [16]: 24.5%
- viability, T/C [3]: 81.3%
- viability, T/C [4]: 80.9%
- viability, T/C [17]: 60.6%
- viability, T/C [18]: 37.4%
- viability, T/C [19]: 29.4%
- viability, T/C [20]: 23%
- viability, T/C [5]: 97%
- viability, T/C [6]: 90.2%
- viability, T/C [21]: 44.6%
- viability, T/C [22]: 38.4%
- viability, T/C [23]: 24.9%
- viability, T/C [24]: 21.9%
- viability, T/C [7]: 93.5%
- viability, T/C [8]: 68.5%
- viability, T/C [25]: 54.8%
- viability, T/C [26]: 36.2%
- viability, T/C [27]: 27.2%
- viability, T/C [28]: 22.7%
- viability, T/C [9]: 83.9%
- viability, T/C [10]: 70.4%
- viability, T/C [29]: 61.5%
- viability, T/C [30]: 33.1%
- viability, T/C [31]: 29.2%
- viability, T/C [32]: 22.5%
- viability, T/C [11]: 78.8%
- viability, T/C [12]: 71%
- viability, T/C [33]: 71.6%
- viability, T/C [34]: 35.8%
- viability, T/C [35]: 32.2%
- viability, T/C [36]: 20.8%

SMILES: CC1COCCN1c1cc(C2(S(C)(=N)=O)CC2)nc(-c2ccnc3[nH]ccc23)n1 (stereo unspecified) + Nc1ccc(C#CCN(C(=O)Cc2ncc(C(F)(F)F)cc2C(F)(F)F)c2ccc(F)cc2)nn1
- IC50 (second compound 0.0316 µM): > 10000 nM
- IC50 (second compound 0.1 µM): > 10000 nM
- IC50 (second compound 0.316 µM): > 10000 nM
- IC50 (second compound 1 µM): > 10000 nM
- IC50 (second compound 3.16 µM): > 10000 nM
- IC50 (second compound 10 µM): > 10000 nM
- viability, T/C [1]: 117%
- viability, T/C [2]: 96.5%
- viability, T/C [13]: 90.7%
- viability, T/C [14]: 86.2%
- viability, T/C [15]: 73.6%
- viability, T/C [16]: 54.6%
- viability, T/C [3]: 99.2%
- viability, T/C [4]: 106%
- viability, T/C [17]: 93.1%
- viability, T/C [18]: 79.8%
- viability, T/C [19]: 78.7%
- viability, T/C [20]: 58.5%
- viability, T/C [5]: 116%
- viability, T/C [6]: 101%
- viability, T/C [21]: 93.1%
- viability, T/C [22]: 81.5%
- viability, T/C [23]: 80%
- viability, T/C [24]: 59.7%
- viability, T/C [7]: 112%
- viability, T/C [8]: 90.9%
- viability, T/C [25]: 84.7%
- viability, T/C [26]: 91.7%
- viability, T/C [27]: 75.1%
- viability, T/C [28]: 70.3%
- viability, T/C [9]: 116%
- viability, T/C [10]: 101%
- viability, T/C [29]: 91.4%
- viability, T/C [30]: 92.4%
- viability, T/C [31]: 76.1%
- viability, T/C [32]: 57.5%
- viability, T/C [11]: 96.5%
- viability, T/C [12]: 119%
- viability, T/C [33]: 106%
- viability, T/C [34]: 95%
- viability, T/C [35]: 93%
- viability, T/C [36]: 72.4%
